Tests used:
[1] = tested on: mouse primary bone marrow cells; assay: Mitochondrial toxicity in primary bone marrow cells; assay type: cell-based; details: concentrations <1 mM
in vivo = details: rat
[2] = Pharmacokinetics in the rhesus monkey; assay type: in vivo
clinical [3] = details: in vivo; for CL renal: CLr; for CL/F: CLtot/F
Method: Total of 18 HIV-1 infected males, aged 18-55 years, enrolled, 6 per treatment cohort.
In Cohort 3, subjects received either 100 mg, or 200 mg, or placebo.
The data was analyzed using non-compartmental and two-compartmental models.
HIV RNA levels were also determined using quantitative real-time RT-PCR.
Plasma HIV-1 RNA levels were measured by quantitative reverse transcriptase-polymerase chain reaction (Q-RT-PCR) essentially as described by Stuyver, L. J. et al., “Antiviral activity and cellular toxicity of modified 2′,3′-dideoxy-2′,3′-didehydrocytidine analogues” Antimicrob Agents Chemother.

wild type HIV-RT = biological target: T1, wild type HIV-RT (Human immunodeficiency virus type 1 group M subtype B, UniProt P04585); assay: Ki / Km for wild type HIV-RT; assay type: biochemical, HIV-1
T1 construct: The Ki value for β-D-D4FC-TP for wild type HIV-RT

M184V mutant RT = M184V mutant RT (Human immunodeficiency virus type 1 group M subtype B, UniProt P04585, M771V); assay: biochemical; assay type: biochemical, HIV-1; details: read-out: Ki for mutant RT
HepG2 cells = assay: Mitochondrial toxicity testing (mitDNA, rRNA, lactic acid); assay type: cell-based; details: 14 days; for % Change in Lactic Acid: normalized for cytotoxicity
Method: HepG2 cells were incubated for 14 days with the active agent. and mitDNA and rRNA levels were determined by quantitative real-time PCR. The results are tabulated in […]

clinical [4] = details: in vivo
[5] = human, in vivo
wild type HIV-1 = assay: Inhibition of wild type virus replication in MT-2 cells or PBMCs; assay type: cell-based; details: Human immunodeficiency virus 1, MT2; wild type laboratory and clinical isolates of HIV-1
Description: The target concentration is that concentration where most mutant variants tested are suppressed by 90% or more.

## Nc1nc(=O)n(C2C=CC(CO)O2)cc1F [β-D-D4FC, β-D-2′,3′-Didehydro-2′,3′-dideoxy-5-fluorocytidine]
[1]
  mitochondrial toxicity: not associated with mitochondrial toxicity
In vivo; 15 mg/kg
  AUC at 28 d: 70 µM·h
  Cmax at 28 d: 17 µM
In vivo; 45 mg/kg
  AUC at 28 d: 161 µM·h
  Cmax at 28 d: 44 µM
[2]; compared with AZT and 3TC
  plasma half-life: longer than either AZT or 3TC
[2]; rhesus monkey, in vivo
  clearance of parent: low clearance
Clinical [3]; human, 50 mg
  mean terminal half-life in plasma (t1/2): 6.8±4.2 h to 15.6±12.4
Clinical [3]; human, 200 mg
  mean t1/2: 11.3±1.6 hours to 14.3±3.1
Clinical [3]; human, po
  oral bioavailability: high oral bioavailability
Clinical [3]; male, human
  mean plasma half-life (t1/2): 12.3 ± 4.0 h
Clinical [3]; male, human, 10 mg
  Cmax: ~1 µM
  AUC(0-inf): 858 ng·h/mL
  CL renal: 136 mL/min
  CL/F: 196 mL/min
Clinical [3]; male, human, 10 mg, AUC Actual
  AUC: 3.6 ± 0.5 µM·h
Clinical [3]; male, human, 10 mg, AUC(0-τ)
  AUC: 843 ng·h/mL
Clinical [3]; male, human, 10 mg, Cmax
  Cmax: 197 ng/mL
Clinical [3]; male, human, 10 mg, Cmax Actual
  Cmax: 0.87 ± 0.13 µM
Clinical [3]; male, human, 10 mg, lowest Cmax, at which a maximal effect of viral inhibition was obtained
  Cmax: 0.87 µM
Clinical [3]; male, human, 10 mg, t1/2 λz
  half-life: 4.2 h
Clinical [3]; male, human, 10 mg, tmax
  Tmax: 1 h
Clinical [3]; male, human, 25 mg, AUC Actual
  AUC: 8.1 ± 1.5 µM·h
Clinical [3]; male, human, 25 mg, AUC(0-τ)
  AUC: 1830 ng·h/mL
Clinical [3]; male, human, 25 mg
  AUC(0-inf): 1840 ng·h/mL
  CL renal: 120 mL/min
  CL/F: 230 mL/min
Clinical [3]; male, human, 25 mg, Cmax
  Cmax: 406 ng/mL
Clinical [3]; male, human, 25 mg, Cmax Actual
  Cmax: 1.8 ± 0.5 µM
Clinical [3]; male, human, 25 mg, t1/2 λz
  half-life: 4.49 h
Clinical [3]; male, human, 25 mg, tmax
  Tmax: 1.17 h
Clinical [3]; male, human, 50 mg
  AUC(0-τ): 3,196 ng · h/mL
  AUC(0-∞): 3,221 ng · h/mL
  CLr: 4.30 L/h
  CLtot/F: 17,492 mL/h
  Cmax: 572 ng/mL
  t1/2 λz: 7.02 h
  AUC(0-inf): 3500 ng·h/mL
  CL renal: 73.2 mL/min
  CL/F: 245 mL/min
Clinical [3]; male, human, 50 mg, AUC Actual
  AUC: 27 ± 6.4 µM·h
Clinical [3]; male, human, 50 mg, AUC(0-τ)
  AUC: 3470 ng·h/mL
Clinical [3]; male, human, 50 mg, Cmax
  Cmax: 668 ng/mL
Clinical [3]; male, human, 50 mg, Cmax Actual
  Cmax: 4.8 ± 1.3 µM
Clinical [3]; male, human, 50 mg, mean Cmax
  Cmax: 2.5 µM
Clinical [3]; male, human, 50 mg, t1/2 λz
  half-life: 7.73 h
Clinical [3]; male, human, 50 mg, tmax
  Tmax: 1 h
Clinical [3]; male, human, 100 mg, AUC Actual
  AUC: 32.7 ± 6.8 µM·h
Clinical [3]; male, human, 100 mg, AUC(0-τ)
  AUC: 7010 ng·h/mL
Clinical [3]; male, human, 100 mg
  AUC(0-inf): 7100 ng·h/mL
  CL renal: 124 mL/min
  CL/F: 242 mL/min
Clinical [3]; male, human, 100 mg, Cmax
  Cmax: 1120 ng/mL
Clinical [3]; male, human, 100 mg, Cmax Actual
  Cmax: 5 ± 1.2 µM
Clinical [3]; male, human, 100 mg, t1/2 λz
  half-life: 9.25 h
Clinical [3]; male, human, 100 mg, tmax
  Tmax: 2.92 h
Clinical [3]; male, human, 200 mg, AUC Actual
  AUC: 52.5 ± 9.2 µM·h
Clinical [3]; male, human, 200 mg, AUC(0-τ)
  AUC: 11200 ng·h/mL
Clinical [3]; male, human, 200 mg
  AUC(0-inf): 11400 ng·h/mL
  CL renal: 125 mL/min
  CL/F: 301 mL/min
Clinical [3]; male, human, 200 mg, Cmax
  Cmax: 1750 ng/mL
Clinical [3]; male, human, 200 mg, Cmax Actual
  Cmax: 7.7 ± 1.6 µM
Clinical [3]; male, human, 200 mg, mean Tmax
  Tmax: 2.9 ± 1.6 h
Clinical [3]; male, human, 200 mg, t1/2 λz
  half-life: 10.9 h
Clinical [3]; male, human, 200 mg, tmax
  Tmax: 3.33 h
Clinical [3]; male, human, mean Tmax
  Tmax: 1.1 ± 0.2 h
Clinical [3]; male, human, mean plasma half-life (t1/2)
  half-life: 12.3 ± 4 h
Clinical [3]; male, human, po, 10 mg
  AUC Projected: 5.0 µM·h
  Cmax: 0.63 µM
Clinical [3]; male, human, po, 10 mg, AUC
  AUC: 3.57 ± 0.55 µM·h
Clinical [3]; male, human, po, 10 mg, Cmax
  Cmax: 0.87 ± 0.13 µM
Clinical [3]; male, human, po, 10 mg, T ½
  half-life: 6.8 ± 4.2 h
Clinical [3]; male, human, po, 10 mg, Tmax
  Tmax: 1 h
Clinical [3]; male, human, po, 25 mg
  AUC Projected: 12.5 µM·h
  Cmax: 1.6 µM
Clinical [3]; male, human, po, 25 mg, AUC
  AUC: 8.12 ± 1.47 µM·h
Clinical [3]; male, human, po, 25 mg, Cmax
  Cmax: 1.76 ± 0.48 µM
Clinical [3]; male, human, po, 25 mg, T ½
  half-life: 15.6 ± 12.4 h
Clinical [3]; male, human, po, 25 mg, Tmax
  Tmax: 1.4 ± 1.1 h
Clinical [3]; male, human, po, 50 mg
  AUC: 28.03 ± 4.51 µM·h
  AUC Projected: 25 µM·h
  T ½: 13.8 ± 2.4 h
Clinical [3]; male, human, po, 50 mg, AUC
  AUC: 25.9 ± 8.3 µM·h
Clinical [3]; male, human, po, 50 mg, Cmax
  Cmax: 4.4 ± 1.6 µM
Clinical [3]; male, human, po, 50 mg, T ½
  half-life: 14.3 ± 3.1 h
Clinical [3]; male, human, po, 50 mg, Tmax
  Tmax: 2 ± 0.8 h
Clinical [3]; male, human, po, 100 mg
  AUC Projected: 50 µM·h
  Cmax: 6.3 µM
Clinical [3]; male, human, po, 100 mg, AUC
  AUC: 32.7 ± 6.85 µM·h
Clinical [3]; male, human, po, 100 mg, Cmax
  Cmax: 4.95 ± 1.2 µM
Clinical [3]; male, human, po, 100 mg, T ½
  half-life: 11.3 ± 1.6 h
Clinical [3]; male, human, po, 100 mg, Tmax
  Tmax: 2.9 ± 1 h
Clinical [3]; male, human, po, 200 mg
  AUC Projected: 100 µM·h
  Cmax: 12.6 µM
Clinical [3]; male, human, po, 200 mg, AUC
  AUC: 52.5 ± 9.2 µM·h
Clinical [3]; male, human, po, 200 mg, Cmax
  Cmax: 7.7 ± 1.6 µM
Clinical [3]; male, human, po, 200 mg, T ½
  half-life: 12 ± 0.6 h
Clinical [3]; male, human, po, 200 mg, Tmax
  Tmax: 3.3 ± 1.6 h
Clinical [3]; male
  time plasma levels remain above the median effective concentrations in human PBM cells: > 24 h
Wild type HIV-RT
  Ki: 100 nM
M184V mutant RT
  Ki: 300 to 500 nM
HepG2 cells; 1 μM
  % Change in mitDNA: 0%
  % Change in rRNA: 0%
  % Change in Lactic Acid: +12%
HepG2 cells; 10 μM
  % Change in mitDNA: −1.6%
  % Change in rRNA: 0%
  % Change in Lactic Acid: −2%
Clinical [4]
  half-life: 6 to 15 h
[5]
  Intracellular [Nuc-PPP] in patients (target): 0.5 µM
Wild type HIV-1
  IC90: 855 ± 400 nM

— US20050244490A1, “Dosing methods for beta-D-2',3'-dideoxy-2',3'-didehydro-5-fluorocytidine antiviral therapy” (priority 2003, published 2005)
